Source: patent publication US20120053165A1, “Novel Phenyl Imidazoles and Phenyl Triazoles As Gamma-Secretase Modulators” (Pfizer Inc., priority 2009, published 2012)
Like-named read-outs stand apart in the source and are kept apart here.

Test system: production of amyloid beta protein Aβ(1-42) in human WT-APP overexpressing CHO cells
[1] = Homo sapiens, CHO, read-out: Aβ 42 IC50, Geometric mean of 2-8 determinations, human WT-APP overexpressing CHO cells
[2] = read-out: Aβ 42 IC50, Geometric mean of 2-8 determinations, human WT-APP overexpressing CHO cells
[3] = Homo sapiens, CHO, read-out: Aβ 42 IC50
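Also: Aβ(1-42) released into conditioned medium captured by ELISA after roughly 24 h compound exposure, vehicle and inhibitor controls defining maximal and minimal inhibition.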

Protocol: Cell-Based γ-Secretase Assay with ELISA Readout
The ability of compounds to modulate production of amyloid beta protein Aβ(1-42) was determined using human WT-APP overexpressing CHO cells. Cells were plated at 22,000 cells/100 μL well in 96 well tissue culture treated, clear plates (Falcon) in DMEM/F12 based medium and incubated for 24 hours at 37° C. […] Compounds were added in fresh medium to achieve 1% final DMSO. Appropriate vehicle and inhibitor controls were added to obtain maximum and minimum inhibition values for the assay before the plates were incubated for about 24 hours at 37° C.
Coating of ELISA assay plates was initiated by addition of 50 μL/well of an in house Aβ(1-42) specific antibody at (4 μg/mL) in 0.1 M NaHCO3 (pH 9.0) into black 384-well Maxisorp® plates (Nunc) and incubated overnight at 4° C. […] Ambient temperature incubation was allowed to proceed for a minimum of two hours before washing 2×100 μL with Wash Buffer (Dulbecco's PBS, 0.05% Tween 20). Assay Buffer (Dulbecco's PBS, 1.0% BSA (Sigma A7030), 0.05% Tween 20) 20 μL/well is then added.
After incubation overnight at 37° C., 5% CO2, 40 μL (in duplicate) of experimental conditioned media are transferred into wells of the blocked ELISA plates containing the capture antibody, followed by overnight incubation at 4° C.
After overnight incubation of the ELISA assay plates at 4° C., unbound Aβ peptides were removed thorough (4×100 μL) washes with Wash Buffer.

| SMILES | IC50 [1] | IC50 [2] | further results |
| --- | --- | --- | --- |
| COc1cc(C(=O)NCc2ccc(F)cc2Cl)ccc1-n1cnc(C)c1 [Example 76, N-(2-chloro-4-fluorobenzyl)-3-methoxy-4-(4-methyl-1H-imidazol-1-yl)benzamide] | 0.476 µM |  |  |
| COc1cc(C(=O)NCc2cccc(C(F)(F)F)c2F)ccc1-n1cnc(C)c1 [Example 77, N-[2-fluoro-3-(trifluoromethyl)benzyl]-3-methoxy-4-(4-methyl-1H-imidazol-1-yl) benzamide] |  | 0.481 µM |  |
| COc1cc(C(=O)NC2(c3ccc(Cl)cc3)CC2)ccc1-n1cnc(C)c1 [Example 78, N-[1-(4-chlorophenyl)cyclopropyl]-3-methoxy-4-(4-methyl-1H-imidazol-1-yl) benzamide] |  | 0.488 µM |  |
| COc1cc(C(=O)NCCc2ccccc2Cl)ccc1-n1cnc(C)c1 [Example 79, N-[2-(2-chlorophenyl)ethyl]-3-methoxy-4-(4-methyl-1H-imidazol-1-yl)benzamide] |  |  | IC50 [3]: 0.495 µM |
| COc1cc(C(=O)N[C@H](c2ccccc2)[C@@H](O)c2ccccc2)ccc1-n1cnc(C)c1 [Example 80, N-[(1R,2S)-2-hydroxy-1,2-diphenylethyl]-3-methoxy-4-(4-methyl-1H-imidazol-1-yl) benzamide] |  | 0.501 µM |  |
| COc1cc(C(=O)NCCCc2ccc(F)cc2)ccc1-n1cnc(C)c1 [Example 81, N-[3-(4-fluorophenyl)propyl]-3-methoxy-4-(4-methyl-1H-imidazol-1-yl)benzamide] | 0.504 µM |  |  |
| COc1cc(C(=O)NCc2cc(C)ccc2C)ccc1-n1cnc(C)c1 [Example 82, N-(2,5-dimethylbenzyl)-3-methoxy-4-(4-methyl-1H-imidazol-1-yl) benzamide] |  | 0.513 µM |  |
| COc1cc(C(=O)NCc2ccc(C(F)(F)F)c(F)c2)ccc1-n1cnc(C)c1 [Example 83, N-[3-fluoro-4-(trifluoromethyl)benzyl]-3-methoxy-4-(4-methyl-1H-imidazol-1-yl) benzamide] |  | 0.514 µM |  |
| COc1cc(C(=O)NCc2cccc(Cl)c2)ccc1-n1cnc(C)c1 [Example 84, N-(3-chlorobenzyl)-3-methoxy-4-(4-methyl-1H-imidazol-1-yl) benzamide] |  | 0.52 µM |  |
| COc1cc(C(=O)N2CCCC(Oc3ccccc3C(C)C)C2)ccc1-n1cnc(C)c1 (stereo not drawn) [Example 85, 3-(2-isopropylphenoxy)-1-[3-methoxy-4-(4-methyl-1H-imidazol-1-yl)benzoyl]piperidine] | 0.533 µM |  |  |
| COc1cc(C(=O)NCc2nc3cc(Cl)c(C)cc3o2)ccc1-n1cnc(C)c1 [Example 86, N-[(5-chloro-6-methyl-1,3-benzoxazol-2-yl)methyl]-3-methoxy-4-(4-methyl-1H-imidazol-1-yl)benzamide] | 0.544 µM |  |  |
| COc1cc(C(=O)NCc2cc3ccccc3s2)ccc1-n1cnc(C)c1 [Example 87, N-(1-benzothien-2-ylmethyl)-3-methoxy-4-(4-methyl-1H-imidazol-1-yl) benzamide] |  | 0.56 µM |  |
| COc1cc(C(=O)NC(C)Cc2ccc(C(F)(F)F)cc2)ccc1-n1cnc(C)c1 (stereo not drawn) [Example 88, 3-methoxy-4-(4-methyl-1H-imidazol-1-yl)-N-{1-methyl-2-[4-(trifluoromethyl)phenyl]ethyl} benzamide] |  | 0.561 µM |  |
| COc1cc(C(=O)NCc2cc3cc(F)ccc3[nH]2)ccc1-n1cnc(C)c1 [Example 89, N-[(5-fluoro-1H-indol-2-yl)methyl]-3-methoxy-4-(4-methyl-1H-imidazol-1-yl)benzamide] | 0.57 µM |  |  |
| COc1cc(C(=O)NCCOc2ccccc2Cl)ccc1-n1cnc(C)c1 [Example 90, N-[2-(2-chlorophenoxy)ethyl]-3-methoxy-4-(4-methyl-1H-imidazol-1-yl) benzamide] |  | 0.573 µM |  |
| COc1cc(C(=O)N2CCC(Oc3ccccc3C(F)(F)F)CC2)ccc1-n1cnc(C)c1 [Example 91, 1-[3-methoxy-4-(4-methyl-1H-imidazol-1-yl)benzoyl]-4-[2-(trifluoromethyl)phenoxy]piperidine] | 0.588 µM |  |  |
| COc1cc(C(=O)NC2(Cc3cccc(Cl)c3)CC2)ccc1-n1cnc(C)c1 [Example 92, N-[1-(3-chlorobenzyl)cyclopropyl]-3-methoxy-4-(4-methyl-1H-imidazol-1-yl) benzamide] |  | 0.595 µM |  |
| COc1cc(C(=O)N2CCC(Oc3ccccc3OC(F)(F)F)CC2)ccc1-n1cnc(C)c1 [Example 93, 1-[3-methoxy-4-(4-methyl-1H-imidazol-1-yl)benzoyl]-4-[2-(trifluoromethoxy)phenoxy]piperidine] | 0.602 µM |  |  |
| COc1cc(C(=O)NCc2nc(-c3ccc(C(F)(F)F)c(F)c3)no2)ccc1-n1cnc(C)c1 [Example 94, N-({3-[3-fluoro-4-(trifluoromethyl)phenyl]-1,2,4-oxadiazol-5-yl}methyl)-3-methoxy-4-(4-methyl-1H-imidazol-1-yl) benzamide] |  | 0.61 µM |  |
| COc1cc(C(=O)N[C@@H]2CCC[C@@H]2Cc2cccc(F)c2)ccc1-n1cnc(C)c1 [Example 95, N-[(1R,2R)-2-(3-fluorobenzyl)cyclopentyl]-3-methoxy-4-(4-methyl-1H-imidazol-1-yl) benzamide] |  | 0.627 µM |  |

| SMILES | IC50 [1] | IC50 [2] | further results |
| --- | --- | --- | --- |
| COc1cc(C(=O)NC(c2ccccc2Cl)c2nc3ccccc3n2C)ccc1-n1cnc(C)c1 (stereo not drawn) [Example 96, N-[(2-chlorophenyl)(1-methyl-1H-benzimidazol-2-yl)methyl]-3-methoxy-4-(4-methyl-1H-imidazol-1-yl) benzamide] |  | 0.63 µM |  |
| COc1cc(C(=O)NCCc2c[nH]c3ccc(C)cc23)ccc1-n1cnc(C)c1 [Example 97, 3-methoxy-4-(4-methyl-1H-imidazol-1-yl)-N-[2-(5-methyl-1H-indol-3-yl)ethyl] benzamide] |  | 0.634 µM |  |
| COc1cc(C(=O)N2CCC(c3cccc(Cl)c3)C2)ccc1-n1cnc(C)c1 (stereo not drawn) [Example 98, 1-(4-{[3-(3-chlorophenyl)pyrrolidin-1-yl]carbonyl}-2-methoxyphenyl)-4-methyl-1H-imidazole] | 0.642 µM |  |  |
| COc1cc(C(=O)NC(C)c2ccc3[nH]ccc3c2)ccc1-n1cnc(C)c1 (stereo not drawn) [Example 99, N-[1-(1H-indol-5-yl)ethyl]-3-methoxy-4-(4-methyl-1H-imidazol-1-yl) benzamide] |  | 0.665 µM |  |
| COc1cc(C(=O)NC(C)CCc2ccccc2)ccc1-n1cnc(C)c1 (stereo not drawn) [Example 100, 3-methoxy-4-(4-methyl-1H-imidazol-1-yl)-N-(1-methyl-3-phenylpropyl) benzamide] |  | 0.667 µM |  |
| COc1cc(C(=O)NCC2(c3ccccc3)CC2)ccc1-n1cnc(C)c1 [Example 101, 3-methoxy-4-(4-methyl-1H-imidazol-1-yl)-N-[(1-phenylcyclopropyl)methyl]benzamide] | 0.686 µM |  |  |
| COc1cc(C(=O)NCc2c(C)cccc2NS(C)(=O)=O)ccc1-n1cnc(C)c1 [Example 102, 3-methoxy-4-(4-methyl-1H-imidazol-1-yl)-N-{2-methyl-6-[(methyl-sulfonyl)amino]benzyl} benzamide] |  | 0.689 µM |  |
| COc1cc(C(=O)NCCc2ccc(Cl)cc2)ccc1-n1cnc(C)c1 [Example 103, N-[2-(4-chlorophenyl)ethyl]-3-methoxy-4-(4-methyl-1H-imidazol-1-yl)benzamide] |  |  | IC50 [3]: 0.698 µM |
| CCOc1ccccc1CCNC(=O)c1ccc(-n2cnc(C)c2)c(OC)c1 [Example 104, N-[2-(2-ethoxyphenyl)ethyl]-3-methoxy-4-(4-methyl-1H-imidazol-1-yl)benzamide] |  |  | IC50 [3]: 0.698 µM |
| COc1ccc(C2(CNC(=O)c3ccc(-n4cnc(C)c4)c(OC)c3)CCCC2)cc1 [Example 105, 3-methoxy-N-{[1-(4-methoxyphenyl)cyclopentyl]methyl}-4-(4-methyl-1H-imidazol-1-yl) benzamide] |  | 0.708 µM |  |
| COc1cc(C(=O)NC2CCCc3c(O)cccc32)ccc1-n1cnc(C)c1 (stereo not drawn) [Example 106, N-(5-hydroxy-1,2,3,4-tetrahydronaphthalen-1-yl)-3-methoxy-4-(4-methyl-1H-imidazol-1-yl)benzamide] | 0.731 µM |  |  |
| COc1cc(C(=O)NC(c2ccc(F)cc2)c2nc3ccccc3n2C)ccc1-n1cnc(C)c1 (stereo not drawn) [Example 107, N-[(4-fluorophenyl)(1-methyl-1H-benzimidazol-2-yl)methyl]-3-methoxy-4-(4-methyl-1H-imidazol-1-yl)benzamide] | 0.735 µM |  |  |
| COc1cc(C(=O)N2CC(Oc3cc(Cl)ccc3Cl)C2)ccc1-n1cnc(C)c1 [Example 108, 1-(4-{[3-(2,5-dichlorophenoxy)azetidin-1-yl]carbonyl}-2-methoxyphenyl)-4-methyl-1H-imidazole] |  |  | IC50 (Homo sapiens, CHO, read-out: Aβ 42 IC50, Single IC50 determination, human WT-APP overexpressing CHO cells): 0.738 µM |
| COc1ccc(OC)c(C2CCN(C(=O)c3ccc(-n4cnc(C)c4)c(OC)c3)C2)c1 (stereo not drawn) [Example 109, 1-(4-{[3-(2,5-dimethoxyphenyl)pyrrolidin-1-yl]carbonyl}-2-methoxyphenyl)-4-methyl-1H-imidazole] | 0.739 µM |  |  |
| COc1cc(C(=O)N[C@@H](C)c2ccc(C)cc2)ccc1-n1cnc(C)c1 [Example 110, 3-methoxy-4-(4-methyl-1H-imidazol-1-yl)-N-[(1S)-1-(4-methylphenyl)ethyl) benzamide] |  |  | IC50 (read-out: Aβ 42 IC50): 0.747 µM |
| COc1cc(C(=O)NCC(c2ccc(C(F)(F)F)cc2)N2CCOCC2)ccc1-n1cnc(C)c1 (stereo not drawn) [Example 111, 3-methoxy-4-(4-methyl-1H-imidazol-1-yl)-N-{2-morpholin-4-yl-2-[4-(trifluoromethyl)phenyl]ethyl}benzamide] | 0.756 µM |  |  |
| CCOc1cccc(CCNC(=O)c2ccc(-n3cnc(C)c3)c(OC)c2)c1 [Example 112, N-[2-(3-ethoxyphenyl)ethyl]-3-methoxy-4-(4-methyl-1H-imidazol-1-yl)benzamide] |  |  | IC50 [3]: 0.765 µM |
| COc1cc(C(=O)NCC2CCc3ccccc3C2)ccc1-n1cnc(C)c1 (stereo not drawn) [Example 113, 3-methoxy-4-(4-methyl-1H-imidazol-1-yl)-N-(1,2,3,4-tetrahydro-naphthalen-2-ylmethyl) benzamide] |  | 0.784 µM |  |
| COc1cc(C(=O)NC2CCc3ccccc3C2)ccc1-n1cnc(C)c1 (stereo not drawn) [Example 114, 3-methoxy-4-(4-methyl-1H-imidazol-1-yl)-N-(1,2,3,4-tetrahydro-naphthalen-2-yl) benzamide] |  | 0.793 µM |  |
